“Also recorded” adds a separate entry of the source.
Key:
[1] = system: senile plaques or NFT in AD; assay: ex vivo screening on AD patient brain sections; assay type: binding, human
From the text: (§1) Ex vivo screening was extended into human DLB, MSA and AD patient samples. […] Since there are detectable α-Syn aggregates in AD patient brains, these compounds colocalized with p-S129 positive α-Syn inclusions.
(§2) The ex vivo screening was extended into human DLB, MSA and AD patient samples. Neurodegenerative disease of DLB (dementia with Lewy Bodies) and MSA belongs to synucleinopathies with well-defined Lewy bodies.

[2] = molecular target: T1, LBs and LNs in DLB and MSA patient brains (Homo sapiens, UniProt P37840); assay: ex vivo screening on DLB and MSA patient brain sections; assay type: binding
T1 construct: from tissue; host or cells: brain sections of DLB and MSA patients
From the text: as §1, §2

α-Syn PFFs = α-Syn PFFs (Homo sapiens, UniProt P37840); assay: fluorescence spectroscopy titration with α-Syn PFFs; assay type: binding; conditions: 0.08 μM fibrils, 5 μM small molecule; result in words
Description: (§3) A fluorescent titration assay was conducted. The fluorescent emission intensities were determined with 0.08 μM of various fibrils in the presence of 5 μM of the small molecules.
(§4) To further investigate the selected compounds binding activities with α-Syn PFFs, fluorescence spectroscopy titrations were conducted to quantitatively measure compounds emission intensity when interacting with different concentrations of α-Syn PFFs. The UV spectrum of each compound was determined and selected for the optimal wavelength to conduct the fluorescence spectroscopic studies.

[3] = molecular target: T2, Lewy bodies in α-Syn A53T virus injected WT mice brain slices (Homo sapiens, UniProt P37840, A53T); assay: staining of mouse brain slices with Lewy bodies; assay type: binding
T2 construct: from tissue; host or cells: brain (substantia nigra) of wild-type mice injected with α-Syn A53T virus
Description: (§5) To further explore whether the positive compounds selectively bind to the Lewy bodies, α-Syn A53T patient-derived mutant virus injected WT mice brain slices were employed. These mice display extensive Lewy bodies in the SN.
(§6) To further explore whether the positive compounds selectively bind to the Lewy bodies, a α-Syn A53T patient-derived mutant virus was injected into WT mice brain slices. These mice display extensive Lewy bodies in the Substantial nigra (SN). Moreover, P301S mice expressed neurofibrillary tangles (NFT). The Lewy bodies were labeled with p-α-Syn S129 antibody and the positive aggregates were also labeled with the fluorescent signals from the small molecules. […] However, it was worth noting that almost none of the tested compounds were reactive with NFT.

[4] = molecular target: T3, senile plaques in 5×FAD and 3×Tg mice brain sections (Homo sapiens, UniProt P05067); assay: staining of mouse brain sections with senile plaques; assay type: binding
T3 construct: Aβ-enriched senile plaques; from tissue; host or cells: brain sections of 5×FAD and 3×Tg mice

[5] = molecular target: T4, Lewy bodies positive with anti-p-α-Syn S129 in A53T PD mouse model (Homo sapiens, UniProt P37840, A53T); assay: brain section staining after in vivo administration, Lewy bodies
T4 construct: from tissue; host or cells: brain (substantia nigra) of wild-type mice injected with α-Syn A53T virus
Description: (§7) […] In 2 h, the mice were sacrificed and stained the mouse brain sections with anti-Aβ, AT8 and p-S129 and ThS, respectively.
(§8) The p-S129 positive Lewy bodies in A53T PD mice were further confirmed by anti-aggregated α-Syn 5G2 antibody.

α-Syn aggregated neurons = assay: neuronal α-Syn aggregation model, fluorescent microscopy; assay type: cell-based; conditions: primary cultured neurons, AAV-α-Syn plus α-Syn PFFs
From the text: A series of derivatives were synthesized by including an amino group and a methyl group on benzothiazole to increase the brain permeability and fluorescent signals. The derivatives were subsequently subjected to α-Syn PFFs binding assay and counter-screening with Tau and Aβ PFFs. […] These compounds were screened on the neuronal α-Syn, Tau and Aβ aggregation model for the binding selectivity. Primary cultured neurons were infected with AAV-α-Syn, AAV-Tau FL for 7 days, then treated with α-Syn, Tau or Aβ PFFs. In a few days, the positive compounds were added in the primary neurons with indicated aggregates and analyzed under fluorescent microscopy.
Primary cultured neurons were infected with AAV-α-Syn, AAV-Tau FL or AAV-APP fragment virus for 7 days, and then treated with α-Syn, Tau or Aβ PFFs by following the described protocols (Volpicelli-Daley et al., 2014). In a few days, the positive compounds were added in the primary neurons with indicated aggregation.

[6] = system: NFT in Tau P301S and 3×Tg mice brain sections; assay: staining of mouse brain sections with NFT; assay type: binding
Description: as §5, §6

[7] = molecular target: T5, Lewy bodies in the brain sections from LBD patients (Homo sapiens, UniProt P37840); assay: autoradiography with [18F]F0502B, human brain slices; assay type: binding; conditions: excessive cold compound
T5 construct: from tissue; host or cells: brain sections of LBD patients
Description: [^18F]F0502B was evaluated in vitro and ex vivo binding assays to validate its specificity. α-Syn, Tau and Aβ PFFs were respectively incubated with increasing concentrations of [^18F]F0502B. The binding data were analyzed by curve fitting using nonlinear regression to obtain Kd and Bmax values. The Kd and a Bmax manifested the specific binding affinity with different fibrils. […] Autoradiography with [^18F]F0502B in human brain slices was performed. […] Together, these findings support that F0502B specifically and tightly binds to α-Syn fibrils in the Lewy bodies.

Aβ PFFs = molecular target: T6, Aβ PFFs (Homo sapiens, UniProt P05067); assay: fluorescence spectroscopy titration with Aβ PFFs; assay type: binding; conditions: 0.08 μM fibrils, 5 μM small molecule; result in words
T6 construct: counter-screening with Tau and Aβ PFFs
Description: as §3, §4

[8] = F0502B in vivo PK study and B/P ratios; parameters: species or system mouse; conditions: mice, i.v. 5 mg/kg
Description: To ensure that F0502B meets a PET tracer's kinetic criteria with rapid penetration into the brain and swift wash out, an in vivo PK study was performed in mice with i.v. injection of 5 mg/kg of F0502B.

α-Syn fibrils = α-Syn fibrils (Homo sapiens, UniProt P37840); assay: competitive binding assay with α-Syn fibrils and [18F]F0502B; conditions: fixed concentrations of α-Syn fibrils and [18F]F0502B, increasing concentrations of cold compound
[9] = system: senile plaques and NFT in 5×FAD, 3×Tg and Tau P301S mice; assay: brain section staining after in vivo administration, senile plaques and NFT; parameters: species or system mouse
Description: as §7, §8

Tau PFFs = Tau PFFs (Homo sapiens, UniProt P10636); assay: fluorescence spectroscopy titration with Tau PFFs; assay type: binding; conditions: 0.08 μM fibrils, 5 μM small molecule; result in words
Description: as §3, §4

Tau PFFs, sequence (P10636 whole entry): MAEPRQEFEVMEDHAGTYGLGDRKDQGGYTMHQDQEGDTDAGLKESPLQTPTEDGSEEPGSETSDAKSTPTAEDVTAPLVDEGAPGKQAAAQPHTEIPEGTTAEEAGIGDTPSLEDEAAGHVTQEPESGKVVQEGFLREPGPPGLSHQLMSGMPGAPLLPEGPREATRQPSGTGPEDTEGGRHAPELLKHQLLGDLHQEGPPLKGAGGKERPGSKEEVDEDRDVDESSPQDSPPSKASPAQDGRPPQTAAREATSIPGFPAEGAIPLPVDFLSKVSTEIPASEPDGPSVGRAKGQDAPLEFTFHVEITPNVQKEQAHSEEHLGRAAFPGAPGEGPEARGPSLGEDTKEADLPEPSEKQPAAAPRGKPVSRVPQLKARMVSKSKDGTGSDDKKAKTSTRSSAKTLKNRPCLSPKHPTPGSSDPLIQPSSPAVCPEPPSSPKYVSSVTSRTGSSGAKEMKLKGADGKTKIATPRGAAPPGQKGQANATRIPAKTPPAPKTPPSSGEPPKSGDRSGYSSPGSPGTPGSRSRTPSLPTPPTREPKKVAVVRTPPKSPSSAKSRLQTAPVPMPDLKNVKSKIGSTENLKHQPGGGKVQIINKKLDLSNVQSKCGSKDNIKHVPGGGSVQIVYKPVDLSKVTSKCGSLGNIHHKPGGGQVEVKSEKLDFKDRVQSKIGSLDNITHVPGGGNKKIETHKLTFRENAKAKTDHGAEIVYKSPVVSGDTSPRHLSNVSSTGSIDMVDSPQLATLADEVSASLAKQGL
T6 sequence (P05067 672-713 limits assumed): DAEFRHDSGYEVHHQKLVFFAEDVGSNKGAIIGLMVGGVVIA
T3 sequence (P05067 672-713 limits assumed): as above

For Cc1cc2nc(/C=C/c3ccc(O)c(Br)c3)sc2cc1N(C)CCOCCF [F0502B, (E)-2-bromo-4-(2-(6-((2-(2-fluoroethoxy)ethyl)(methyl)amino)-5-methylbenzo[d]thiazol-2-yl)vinyl)phenol], which “staining of senile plaques or NFT (Aβ, AT8 positive aggregates)” value [1] is on record?
Its value is “not senile plaques or NFT from 5×FAD, 3×Tg and Tau P301S mice or AD patients”.

And the “staining of LBs and LNs” value [2]?
Its value is “specifically associated with α-Syn aggregates”.

And the “binding to α-Syn PFFs by fluorescent emission intensity” value (α-Syn PFFs)?
Its value is “specifically associated with α-Syn fibrils”.

And the “staining of Lewy bodies (p-α-Syn S129 positive)” value [3]?
Its value is “specifically associated with α-Syn aggregates”.

What about the “staining of senile plaques” value [4] of the same compound?
The value was “not senile plaques or NFT from 5×FAD, 3×Tg and Tau P301S mice”.

And the “co-localisation with anti-p-S129 stained Lewy bodies” value ([5]; F0502B 5 mg/kg i.v., mice sacrificed in 2 h, ThS stain on sections)?
Its value is “colocalized with both F0502B and ThS”.

And the “staining of Lewy body by brain generated F0502B” value ([5]; two hours after tail injection of 2 mg/kg of compound 13, A53T mice)?
Its value is “selectively stained Lewy body in A53T mice”.

What about the “fluorescent signal in α-Syn aggregated neurons” value (α-Syn aggregated neurons) of the same compound?
The value was “specifically associated with α-Syn aggregates”.

And the “staining of NFT” value [6]?
Its value is “not senile plaques or NFT from 5×FAD, 3×Tg and Tau P301S mice”.

What about the “blocking of [18F]F0502B binding in brain sections” value [7] of the same compound?
The value was “binding activities were blocked by excessive cold F0502B”.

And the “binding to Aβ PFFs by fluorescent emission intensity” value (Aβ PFFs)?
The value was “barely bound to Aβ or Tau fibrils”.

And the C1 rate [8]?
Its C1 rate is “approximately 3.92 L/h/kg”.

What about the decay in plasma ([8]; result in words) of the same compound?
Its decay in plasma is “almost completely decayed at 8 h in the plasm”.

What about the “brain entry and accumulation” value ([8]; result in words, 5 mg/kg) of the same compound?
The value was “swiftly entered the brain and accumulated in the brain compared to the plasma; also recorded: preferentially enriched in the brain”.

And the Kp at 0.5 h ([8]; mouse, brain, iv, 0.5 h, read-out: B/P ratio)?
Its Kp at 0.5 h is 4.16.

And the Kp at 1 h ([8]; mouse, brain, iv, 1 h, read-out: B/P ratio)?
Its Kp at 1 h is 13.4.

And the Kp at 4 h ([8]; mouse, brain, iv, 4 h, read-out: B/P ratio)?
Its Kp at 4 h is 26.

What about the half-life ([8]; mouse, plasma, iv, read-out: half-life t1/2 (converted)) of the same compound?
Its half-life is 1.16 h.

What about the “displacement of [18F]F0502B from α-Syn fibrils” value (α-Syn fibrils) of the same compound?
The value was “selectively stripped off by increasing concentrations of cold F0502B”.

What about the “staining of senile plaques and NFT” value ([9]; F0502B 5 mg/kg i.v., 2 h, 5×FAD, 3×Tg, Tau P301S mice) of the same compound?
Its value is “does not co-stain Aβ or Tau aggregates”.

And the “staining of senile plaques or NFT by brain generated F0502B” value ([9]; two hours after tail injection of 2 mg/kg of compound 13, AD mouse models)?
Its value is “not senile plaques or NFT in various AD mouse models”.

What about the “binding to Tau PFFs by fluorescent emission intensity” value (Tau PFFs) of the same compound?
The value was “barely bound to Aβ or Tau fibrils”.

Source: US11844846B2, “Styrylbenzothiazole derivatives and uses in imaging methods” (Emory University, priority 2018, dated 2023)
